Results: US9255118B2, “Light induced drug release” (UNIVERSITEIT LEIDEN, priority 2010, dated 2016)

Tests used:
[1] = background statement; cited from earlier work
[2] = Complex stability at human body temperature in the dark (1H NMR in D2O, 37° C.); type: physicochemical; conditions: for Conversion of Ru compounds into their aqua complexes: +37° C.
Description: D2O (0.80 mL) was added to each of the NMR tubes and ^1H NMR spectra were taken. The NMR tubes were put into closed pressure tubes and kept in the dark at 37° C. to check the stability of the Ru—Cl and Ru—S bond. ^1H NMR spectra of each of the tubes were taken after 4 hours, 1 day, 3 days and 3 weeks. The NMR tubes were kept in an ice bath during transport in order to temporarily freeze the reaction. In the case of [Ru(terpy)(bpy)(Cl)](Cl), an equilibrium had been reached after four hours, characterized by 10% of [Ru(terpy)(bpy)(Cl)](Cl) and 90% of [Ru(terpy)(bpy)(H2O)](Cl)2.
The stability of the Ru—S bond was measured at human body temperature and in the dark. To do so, compound [Ru(tpy)(apy)Cl]Cl, and [Ru(tpy)(apy)(AMet)]Cl2, (compound [13](Cl)2) were dissolved in D2O and kept in the dark at 37° C. The release of the aqua species was measured by ^1H NMR after 4 hours, 1 days, and 3 weeks. […] The stability of the Ru—S bond depends on the nature of the polypyridyl ligands (see Example 2), but in general it is much higher than that of the Ru—Cl bond.

HepG2 cancer cells = experiment: WST-1 cell viability test in the dark; type: cell-based; conditions: 1.7 mM, 30 min in the dark, WST-1 normalized to protein content
Description: HepG2 cancer cells were grown in RPMI 1640 medium containing (−) L-glutamine at 37° C. and in an atmosphere of […] and 5% CO2. […] In this experiment, the difference in water solubility between the chlorido and thioether complexes might also play a role, as uptake might be different for both compounds.

[3] = Light-induced cleavage of the Ru-S bond in aqueous solution; type: physicochemical
[4] = 37° C., equilibrium after four hours

## [Cl-].[Cl-].[Cl-].[Ru+3].c1ccc(-c2cccc(-c3ccccn3)n2)nc1 [mer-[Ru(terpy)(Cl)3]]
[1]
  solubility in water: poorly soluble in water

## [Cl-].[Cl-].[Ru+2].c1ccc(N=Nc2ccccn2)cc1.c1ccc(N=Nc2ccccn2)cc1 [α-[Ru(azpy)2(Cl)2]]
[1]
  solubility in water: poorly soluble in water

## [Ru(terpy)(apy)(Cl)](Cl) [[Ru(tpy)(apy)(Cl)](Cl)]
[2]; 3 weeks
  Conversion of Ru compounds into their aqua complexes: 48%
[2]; 4 h
  Conversion of Ru compounds into their aqua complexes: 48%
[2]; 1 day
  Conversion of Ru compounds into their aqua complexes: 48%

## [Ru(terpy)(bpy)(Cl)](Cl)
HepG2 cancer cells
  cell survival reduced by: 49%
[2]; [4]
  aqua complex [Ru(terpy)(bpy)(H2O)](Cl)2 at equilibrium: 90%
  starting chlorido complex at equilibrium: 10%

## [Ru(terpy)(bpy)(D-biotin)](Cl)2 [Compound [7](Cl)2]
HepG2 cancer cells
  cell survival reduced by: not reduced

## [Ru(terpy)(bpy)(mte)](BF4)2 [Compound [9](BF4)2]
[3]; white light, aqueous solution
  photosubstitution of the monodentate sulfur ligand: photosubstituted by an aqua ligand

## [Ru(tpy)(apy)(AMet)]Cl2 [Compound [13](Cl)2]
[3]; visible light, D2O, 1H NMR and thin layer chromatography
  photochemical cleavage of the Ru-S bond: photochemically labile
[2]; 3 weeks
  Conversion of Ru compounds into their aqua complexes: 46%
[2]; 4 h
  Conversion of Ru compounds into their aqua complexes: no sign of cleavage
[2]; 4 h, listed as [Ru(tpy)(apy)(AMet)](Cl)2
  Conversion of Ru compounds into their aqua complexes: 0%
[2]; 1 day
  Conversion of Ru compounds into their aqua complexes: 21%
